Results on 1 molecule are retold here after publication PMC1175024, “Chondrocytes, synoviocytes and dermal fibroblasts all express PH-20, a hyaluronidase active at neutral pH” (Arthritis Research & Therapy, 2005).

This assay deals with T1, PH-20 (sperm adhesion molecule 1), immunopurified from human connective tissue cell layers (Homo sapiens, UniProt P38567).
T1 construct: gene SPAM1; 60-65 kDa; no tag
T1 sequence (P38567 36-490): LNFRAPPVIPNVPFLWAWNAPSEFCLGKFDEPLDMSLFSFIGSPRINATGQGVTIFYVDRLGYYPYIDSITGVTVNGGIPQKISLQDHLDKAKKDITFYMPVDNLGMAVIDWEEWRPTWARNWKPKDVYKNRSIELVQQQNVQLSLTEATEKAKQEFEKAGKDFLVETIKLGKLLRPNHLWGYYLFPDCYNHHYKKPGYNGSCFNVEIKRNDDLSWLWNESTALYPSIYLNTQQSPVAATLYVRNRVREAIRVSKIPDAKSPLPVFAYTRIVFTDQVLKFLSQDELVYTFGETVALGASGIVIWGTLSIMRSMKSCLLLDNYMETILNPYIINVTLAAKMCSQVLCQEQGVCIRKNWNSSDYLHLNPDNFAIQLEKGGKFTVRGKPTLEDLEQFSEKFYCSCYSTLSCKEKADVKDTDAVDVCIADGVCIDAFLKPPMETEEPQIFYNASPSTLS
The experiment in a line: hyaluronan substrate gel electrophoresis (zymography). The class given is biochemical. To be noted: 5 ug/ml apigenin in DMSO; 0.15 M NaCl, 0.5 mM CaCl2, 7 mM 1,4-saccharolactone; pH 6.5; qualitative inhibition.

Regarding `O=c1cc(-c2ccc(O)cc2)oc2cc(O)cc(O)c12` [apigenin], the activity disappeared entry is reported as “hyaluronidase activity purified from cell layers with the immunoaffinity gel (Api(-), right lane), both disappeared”.
